Reference: patent US9174964B2, “AMPK-activating piperidinyloxy-substituted 2,3-dihydro-1H-indene-1-amine compounds and pharmaceutical compositions including the same” (Rigel Pharmaceuticals, Inc., priority 2007, dated 2015)

What follows are molecules tested against AMPK (assay: AMPK activation, enzyme-linked immunosorbent assay). Conditions: Table 2, AMPK activation, ELISA.
Format: biochemical

Row | SMILES | EC50
1 | O=C(NC1CCN(Cc2ccc(F)cc2)CC1)c1ccc(OC2CCN(c3ccc(C(F)(F)F)cc3)CC2)nc1 [Compound 11, N-(1-(4-fluorobenzyl)piperidin-4-yl)-6-(1-(4-(trifluoromethyl)phenyl)piperidin-4-yloxy)nicotinamide] | < 0.1 µM
2 | O=C(N[C@@H]1CCNC1)c1ccc(OC2CCN(c3ccc(C(F)(F)F)cc3)CC2)cn1 [Compound 24, (R)-N-(pyrrolidin-3-yl)-5-(1-(4-(trifluoromethyl)phenyl)piperidin-4-yloxy)picolinamide] | 5 to 10 µM
3 | O=C(NC1CCN(Cc2ccc(N3CCOCC3)cc2)CC1)c1ccc(OC2CCN(c3ccc(C(F)(F)F)cc3)CC2)cn1 [Compound 40, N-(1-(4-morpholinobenzyl)piperidin-4-yl)-5-(1-(4-(trifluoromethyl)phenyl)piperidin-4-yloxy)picolinamide] | < 0.1 µM
4 | N#Cc1ccc(CN2CC[C@@H](NC(=O)c3ccc(OC4CCN(c5ccc(C(F)(F)F)cc5)CC4)cn3)C2)cc1 [Compound 33, (R)-N-(1-(4-cyanobenzyl)pyrrolidin-3-yl)-5-(1-(4-(trifluoromethyl)phenyl)piperidin-4-yloxy)picolinamide] | 0.5 to 1 µM
5 | O=C(N[C@H]1CCNC1)c1ccc(OC2CCN(c3ccc(C(F)(F)F)cc3)CC2)cn1 [Compound 27, (S)-N-(pyrrolidin-3-yl)-5-(1-(4-(trifluoromethyl)phenyl)piperidin-4-yloxy)picolinamide] | > 10 µM
6 | N#Cc1ccc(CN2CC[C@H](NC(=O)c3ccc(OC4CCN(c5ccc(C(F)(F)F)cc5)CC4)cn3)C2)cc1 [Compound 31, (S)-N-(1-(4-cyanobenzyl)pyrrolidin-3-yl)-5-(1-(4-(trifluoromethyl)phenyl)piperidin-4-yloxy)picolinamide] | < 0.1 µM

Same assay, conditions: Table 3, AMPK activation, ELISA

Row | SMILES | EC50
7 | O=S(=O)(NC1CCN(Cc2cccc(C(F)(F)F)c2)CC1)c1ccc(OC2CCN(c3ccc(C(F)(F)F)cc3)CC2)nc1 [Compound 59, N-(1-(3-(trifluoromethyl)benzyl)piperidin-4-yl)-6-(1-(4-(trifluoromethyl)phenyl)piperidin-4-yloxy)pyridine-3-sulfonamide] | 0.1 to 0.5 µM

Same assay, conditions: Table 4, AMPK activation, ELISA

Row | SMILES | EC50
8 | Cc1c(C(=O)NC2CCNCC2)oc2cc(OC3CCN(c4ccc(C(F)(F)F)cc4)CC3)ccc12 [Compound 62, 3-methyl-N-(piperidin-4-yl)-6-(1-(4-(trifluoromethyl)phenyl)piperidin-4-yloxy)benzofuran-2-carboxamide] | 10 to 50 µM
9 | O=C(N[C@@H]1CCN(Cc2cccnc2)C1)c1cc2cc(OC3CCN(c4ccc(C(F)(F)F)cc4)CC3)ccc2o1 [Compound 123, (R)-N-(1-(pyridin-3-ylmethyl)pyrrolidin-3-yl)-5-(1-(4-(trifluoromethyl)phenyl)piperidin-4-yloxy)benzofuran-2-carboxamide] | 0.1 to 0.5 µM
10 | O=C(N[C@H]1CCNC1)c1cc2cc(OC3CCN(Cc4ccc(Cl)cc4)CC3)ccc2o1 [Compound 128, (S)-5-(1-(4-chlorobenzyl)piperidin-4-yloxy)-N-(pyrrolidin-3-yl)benzofuran-2-carboxamide] | > 50 µM
11 | NC(=O)c1ccc(CN2CCC(Oc3ccc4oc(C(=O)NC5CCN(Cc6ccncc6)CC5)cc4c3)CC2)cc1 [Compound 131, 5-(1-(4-carbamoylbenzyl)piperidin-4-yloxy)-N-(1-(pyridin-4-ylmethyl)piperidin-4-yl)benzofuran-2-carboxamide] | 1 to 10 µM
12 | CN(C(=O)c1cc2cc(OC3CCN(c4ccc(C(F)(F)F)cc4)CC3)ccc2o1)C1CCN(Cc2ccccc2C#N)CC1 [Compound 111, N-(1-(2-cyanobenzyl)piperidin-4-yl)-N-methyl-5-(1-(4-(trifluoromethyl)phenyl)piperidin-4-yloxy)benzofuran-2-carboxamide] | 0.1 to 0.5 µM

Same assay, conditions: Table 5, AMPK activation, ELISA

Row | SMILES | EC50
13 | N#Cc1ccc(CN2CCC(NC(=O)c3sc4cc(OC5CCN(c6ccc(C(F)(F)F)cc6)CC5)ccc4c3Cl)CC2)cc1 [Compound 154, 3-chloro-N-(1-(4-cyanobenzyl)piperidin-4-yl)-6-(1-(4-(trifluoromethyl)phenyl)piperidin-4-yloxy)benzo[b]thiophene-2-carboxamide] | < 0.1 µM
